Measurements: patent US20070128217A1 (priority 2003, published 2007)

Tests used:
[1] = test system: control sera (pooled serum of ten healthy LUMC hospital workers; commercial negative donor pooled serum from the Dutch bloodbank); assay type: binding, human; set-up: Binding of Control serum LUMC to linear peptides / Binding of Control serum Blood-bank to linear peptides / Binding of Control serum LUMC to looped peptides / Binding of Control Serum Blood-Bank to Looped peptides / Binding of Control serum LUMC to linear peptides of the protein M of SARS-CoV Urbani / Binding of Control serum Blood-bank to linear peptides of the protein M of SARS-CoV Urbani / Binding of Control serum LUMC to looped peptides of the protein M of SARS-CoV Urbani / Binding of Control Serum Blood-Bank to Looped peptides of the protein M of SARS-CoV Urbani: unit not given here
[2] = test system: rabbit serum obtained by immunizing a rabbit with the SARS-CoV strain Frankfurt 1; assay type: binding; set-up: Binding of a rabbit serum to linear peptides / Binding of a rabbit serum to looped peptides / Rabbit serum linear peptides / Rabbit serum looped peptides / Binding of a rabbit serum to linear peptides of protein N of SARS-CoV Urbani (Rabbit serum linear peptides) / Binding of a rabbit serum to looped/cyclic peptides of protein N of SARS-CoV Urbani (Rabbit serum looped peptides): unit not given here

For PKLKEDYQIGGYSED, the “Binding of Control Serum Blood-Bank to Looped peptides” value [1] was 0.5, the “Binding of Control serum Blood-bank to linear peptides” value [1] was 0.4 and the “Binding of Control serum LUMC to linear peptides” value [1] was 0.4. For the same sequence, the “Binding of Control serum LUMC to looped peptides” value [1] was 0.7, the “Binding of a rabbit serum to linear peptides” value [2] was 0.1 and the “Binding of a rabbit serum to looped peptides” value [2] was 0.6.
With QHQNSKKTTKLVVIL the “Binding of Control Serum Blood-Bank to Looped peptides” value [1] was 0.6, the “Binding of Control serum Blood-bank to linear peptides” value [1] was 0.5 and the “Binding of Control serum LUMC to linear peptides” value [1] was 0.6. The “Binding of Control serum LUMC to looped peptides” value [1] was 0.5 and the “Recognition of the peptide by the rabbit serum” value [2] was “recognized”.
In the case of TTVLLKEPCPSGTYE, the “Binding of Control Serum Blood-Bank to Looped peptides” value [1] is reported as 0.9, the “Binding of Control serum Blood-bank to linear peptides” value [1] is reported as 0.9 and the “Binding of Control serum LUMC to linear peptides” value [1] is reported as 0.9. The “Binding of Control serum LUMC to looped peptides” value [1] was 1.0, the “Rabbit serum linear peptides” value [2] was 0.4 and the “Rabbit serum looped peptides” value [2] was 0.5.
GTTVLLKEPCPSGTY was tested, and the “Binding of Control Serum Blood-Bank to Looped peptides” value [1] was 0.7, the “Binding of Control serum Blood-bank to linear peptides” value [1] was 0.7 and the “Binding of Control serum LUMC to linear peptides” value [1] was 0.7. For the same sequence, the “Binding of Control serum LUMC to looped peptides” value [1] was 0.8, the “Rabbit serum linear peptides” value [2] was 0.4 and the “Rabbit serum looped peptides” value [2] was 0.4.
In the case of CVRGTTVLLKEPCPS, the “Binding of Control Serum Blood-Bank to Looped peptides” value [1] is reported as 0.9, the “Binding of Control serum Blood-bank to linear peptides” value [1] is reported as 0.8 and the “Binding of Control serum LUMC to linear peptides” value [1] is reported as 0.7. For the same sequence, the “Binding of Control serum LUMC to looped peptides” value [1] was 0.9, the “Rabbit serum linear peptides” value [2] was 0.5 and the “Rabbit serum looped peptides” value [2] was 0.5.
With FFIFNKLVKDPPNVQ the “Binding of Control Serum Blood-Bank to Looped peptides” value [1] was 0.5, the “Binding of Control serum Blood-bank to linear peptides” value [1] was 0.6 and the “Binding of Control serum LUMC to linear peptides” value [1] was 0.7. For the same sequence, the “Binding of Control serum LUMC to looped peptides” value [1] was 0.6, the “Binding of a rabbit serum to linear peptides” value [2] was 0.1 and the “Binding of a rabbit serum to looped peptides” value [2] was 0.5.
For KKNYSELDDEEPMEL, the “Binding of Control Serum Blood-Bank to Looped peptides of the protein X3 of SARS-CoV Urbani” value [1] was 0.6, the “Binding of Control serum Blood-bank to linear peptides of the protein X3 of SARS-CoV Urbani” value [1] was 0.5 and the “Binding of Control serum LUMC to linear peptides of the protein X3 of SARS-CoV Urbani” value [1] was 0.4. The “Binding of Control serum LUMC to looped peptides of the protein X3 of SARS-CoV Urbani” value [1] was 0.9, the “Rabbit serum linear peptides” value [2] was 0.1 and the “Rabbit serum looped peptides” value [2] was 0.0.
With FIFNKLVKDPPNVQI the “Binding of Control Serum Blood-Bank to Looped peptides” value [1] was 0.8, the “Binding of Control serum Blood-bank to linear peptides” value [1] was 0.8 and the “Binding of Control serum LUMC to linear peptides” value [1] was 0.8. The “Binding of Control serum LUMC to looped peptides” value [1] was 0.7, the “Binding of a rabbit serum to linear peptides” value [2] was 0.1 and the “Binding of a rabbit serum to looped peptides” value [2] was 0.7.
In the case of IGGYSEDRHSGVKDY, the “Binding of Control Serum Blood-Bank to Looped peptides” value [1] is reported as 0.7, the “Binding of Control serum Blood-bank to linear peptides” value [1] is reported as 0.4 and the “Binding of Control serum LUMC to linear peptides” value [1] is reported as 0.5. The “Binding of Control serum LUMC to looped peptides” value [1] was 0.6, the “Binding of a rabbit serum to linear peptides” value [2] was 0.1 and the “Binding of a rabbit serum to looped peptides” value [2] was 0.6.
With RGTTVLLKEPCPSGT the “Binding of Control Serum Blood-Bank to Looped peptides” value [1] was 0.9, the “Binding of Control serum Blood-bank to linear peptides” value [1] was 0.9 and the “Binding of Control serum LUMC to linear peptides” value [1] was 0.8. For the same sequence, the “Binding of Control serum LUMC to looped peptides” value [1] was 0.8, the “Rabbit serum linear peptides” value [2] was 0.4 and the “Rabbit serum looped peptides” value [2] was 0.5.
IISSIVRQLFKPLTK was tested, and the “Binding of Control Serum Blood-Bank to Looped peptides of the protein X3 of SARS-CoV Urbani” value [1] was 0.6, the “Binding of Control serum Blood-bank to linear peptides of the protein X3 of SARS-CoV Urbani” value [1] was 0.8 and the “Binding of Control serum LUMC to linear peptides of the protein X3 of SARS-CoV Urbani” value [1] was 0.8. The “Binding of Control serum LUMC to looped peptides of the protein X3 of SARS-CoV Urbani” value [1] was 0.6, the “Rabbit serum linear peptides” value [2] was 0.6 and the “Rabbit serum looped peptides” value [2] was 0.4.
With NPAMDPIYDEPTTTT the “Binding of Control Serum Blood-Bank to Looped peptides” value [1] was 0.4, the “Binding of Control serum Blood-bank to linear peptides” value [1] was 0.4 and the “Binding of Control serum LUMC to linear peptides” value [1] was 0.3. For the same sequence, the “Binding of Control serum LUMC to looped peptides” value [1] was 0.4, the “Binding of a rabbit serum to linear peptides” value [2] was 0.1 and the “Binding of a rabbit serum to looped peptides” value [2] was 0.3.
ANPAMDPIYDEPTTT was tested, and the “Binding of Control Serum Blood-Bank to Looped peptides” value [1] was 0.4, the “Binding of Control serum Blood-bank to linear peptides” value [1] was 0.4 and the “Binding of Control serum LUMC to linear peptides” value [1] was 0.3. The “Binding of Control serum LUMC to looped peptides” value [1] was 0.4, the “Binding of a rabbit serum to linear peptides” value [2] was 0.1 and the “Binding of a rabbit serum to looped peptides” value [2] was 0.4.
With LRIGTQVLKTMSLYM the “Binding of Control Serum Blood-Bank to Looped peptides” value [1] was 0.7, the “Binding of Control serum Blood-bank to linear peptides” value [1] was 0.6 and the “Binding of Control serum LUMC to linear peptides” value [1] was 0.4. The “Binding of Control serum LUMC to looped peptides” value [1] was 0.7, the “Binding of a rabbit serum to linear peptides” value [2] was 0.4 and the “Binding of a rabbit serum to looped peptides” value [2] was 0.4.
For SEDRHSGVKDYVVVH, the “Binding of Control Serum Blood-Bank to Looped peptides” value [1] was 0.5, the “Binding of Control serum Blood-bank to linear peptides” value [1] was 1.0 and the “Binding of Control serum LUMC to linear peptides” value [1] was 0.8. The “Binding of Control serum LUMC to looped peptides” value [1] was 0.5, the “Binding of a rabbit serum to linear peptides” value [2] was 0.1 and the “Binding of a rabbit serum to looped peptides” value [2] was 0.4.
For NYFVCWHTHNYDYCI, the “Binding of Control Serum Blood-Bank to Looped peptides” value [1] was 0.6, the “Binding of Control serum Blood-bank to linear peptides” value [1] was 0.6 and the “Binding of Control serum LUMC to linear peptides” value [1] was 0.6. The “Binding of Control serum LUMC to looped peptides” value [1] was 0.6, the “Binding of a rabbit serum to linear peptides” value [2] was 0.1 and the “Binding of a rabbit serum to looped peptides” value [2] was 0.5.
